{
  "source": "patent US5545639A",
  "about": "“Method of inhibiting transformed cells” (The United States of America as represented by the …, priority 1994, dated 1996)",
  "experiment_in_all_cases": "Dose response of growth, tumor cell line",
  "type_in_all_cases": "cell-based",
  "key": {"[1]": {"tested_on": "A549/ATCC", "details": "Homo sapiens, non-small cell lung cancer", "description": "(§1) Indeed, 70% of the cell lines were shown not only to experience precluded growth, but cell death, when exposed to less then 100 μM of the active ingredient."}, "[2]": {"tested_on": "CCRF-CEM", "details": "Homo sapiens, leukemia", "description": "as §1"}, "[3]": {"tested_on": "COLO 205", "details": "Homo sapiens, COLO 205, colon cancer", "description": "as §1"}, "[4]": {"tested_on": "DMS 114", "details": "Homo sapiens, DMS 114, small cell lung cancer", "description": "as §1"}, "[5]": {"tested_on": "HCC-2998", "details": "Homo sapiens, HCC-2998, colon cancer", "description": "as §1"}, "[6]": {"tested_on": "HCT-116", "details": "Homo sapiens, HCT-116, colon cancer", "description": "as §1"}, "[7]": {"tested_on": "HCT-15", "details": "Homo sapiens, HCT-15, colon cancer", "description": "as §1"}, "[8]": {"tested_on": "IGROVI", "details": "Homo sapiens, ovarian cancer", "description": "as §1"}, "[9]": {"tested_on": "K-562", "details": "Homo sapiens, K562, K-562, leukemia", "description": "as §1"}, "[10]": {"tested_on": "MALME-3M", "details": "Homo sapiens, melanoma", "description": "as §1"}, "[11]": {"tested_on": "MCF7/ADR-RES", "details": "Homo sapiens, miscellaneous", "description": "as §1"}, "[12]": {"tested_on": "MCF7", "details": "Homo sapiens, MCF7, miscellaneous", "description": "as §1"}, "[13]": {"tested_on": "MOLT-4", "details": "Homo sapiens, MOLT-4, leukemia", "description": "as §1"}, "[14]": {"tested_on": "NCI-H226", "details": "Homo sapiens, NCI-H226, non-small cell lung cancer", "description": "as §1"}, "[15]": {"tested_on": "NCI-H522", "details": "Homo sapiens, NCI-H522, non-small cell lung cancer", "description": "as §1"}, "[16]": {"tested_on": "OVCAR-8", "details": "Homo sapiens, OVCAR-8, ovarian cancer", "description": "as §1"}, "[17]": {"tested_on": "RXF-393", "details": "Homo sapiens, RXF-393, renal cancer", "description": "as §1"}, "[18]": {"tested_on": "SF-268", "details": "Homo sapiens, SF-268, CNS cancer", "description": "as §1"}, "[19]": {"tested_on": "SK-MEL-28", "details": "Homo sapiens, SK-MEL-28, melanoma", "description": "as §1"}, "[20]": {"tested_on": "SK-MEL-2", "details": "Homo sapiens, SK-MEL-2, melanoma", "description": "as §1"}, "[21]": {"tested_on": "SN12C", "details": "Homo sapiens, renal cancer", "description": "as §1"}, "[22]": {"tested_on": "SNB-78", "details": "Homo sapiens, SNB-78, CNS cancer", "description": "as §1"}, "[23]": {"tested_on": "SW-620", "details": "Homo sapiens, SW-620, colon cancer", "description": "as §1"}, "[24]": {"tested_on": "UACC-257", "details": "Homo sapiens, UACC-257, melanoma", "description": "as §1"}, "[25]": {"tested_on": "UO-31", "details": "Homo sapiens, UO-31, renal cancer", "description": "as §1"}, "[26]": {"details": "read-out: 50% Growth (Relative to Control)"}, "[27]": {"details": "read-out: No Growth (Relative to Control)"}},
  "data": [
    {"smiles": "ClCc1ccc2ccc3ccc(CCl)nc3c2n1", "note": "[2,9-bis(chloromethyl)-1,10-phenanthroline]", "values": [
      {"measurement": "IC50", "setting": "[1]; [26]", "result": 5.14, "unit": "µM"},
      {"measurement": "CC50", "setting": "[1]; read-out: 50% Loss (50% kill)", "result": "> 100", "unit": "µM"},
      {"measurement": "IC100", "setting": "[1]; [27]", "result": "> 100", "unit": "µM"},
      {"measurement": "IC50", "setting": "[2]; [26]", "result": 1.8, "unit": "µM"},
      {"measurement": "CC50", "setting": "[2]; read-out: 50% Loss (50% kill)", "result": "> 100", "unit": "µM"},
      {"measurement": "IC100", "setting": "[2]; [27]", "result": 8.64, "unit": "µM"},
      {"measurement": "IC50", "setting": "[3]; [26]", "result": 1.56, "unit": "µM"},
      {"measurement": "CC50", "setting": "[3]; read-out: 50% Loss (50% kill)", "result": 5.54, "unit": "µM"},
      {"measurement": "IC100", "setting": "[3]; [27]", "result": 2.94, "unit": "µM"},
      {"measurement": "IC50", "setting": "[4]; [26]", "result": 1.62, "unit": "µM"},
      {"measurement": "IC100", "setting": "[4]; [27]", "result": 3.53, "unit": "µM"},
      {"measurement": "IC50", "setting": "[5]; [26]", "result": 1.56, "unit": "µM"},
      {"measurement": "CC50", "setting": "[5]; read-out: 50% Loss (50% kill)", "result": 6.18, "unit": "µM"},
      {"measurement": "IC100", "setting": "[5]; [27]", "result": 3.11, "unit": "µM"},
      {"measurement": "IC50", "setting": "[6]; [26]", "result": 1.8, "unit": "µM"},
      {"measurement": "CC50", "setting": "[6]; read-out: 50% Loss (50% kill)", "result": 8.31, "unit": "µM"},
      {"measurement": "IC100", "setting": "[6]; [27]", "result": 3.87, "unit": "µM"},
      {"measurement": "IC50", "setting": "[7]; [26]", "result": 1.95, "unit": "µM"},
      {"measurement": "CC50", "setting": "[7]; read-out: 50% Loss (50% kill)", "result": "> 100", "unit": "µM"},
      {"measurement": "IC100", "setting": "[7]; [27]", "result": 6.47, "unit": "µM"},
      {"measurement": "IC50", "setting": "[8]; [26]", "result": 1.51, "unit": "µM"},
      {"measurement": "CC50", "setting": "[8]; read-out: 50% Loss (50% kill)", "result": 6.25, "unit": "µM"},
      {"measurement": "IC100", "setting": "[8]; [27]", "result": 3.07, "unit": "µM"},
      {"measurement": "IC50", "setting": "[9]; [26]", "result": 3.19, "unit": "µM"},
      {"measurement": "CC50", "setting": "[9]; read-out: 50% Loss (50% kill)", "result": "> 100", "unit": "µM"},
      {"measurement": "IC100", "setting": "[9]; [27]", "result": "> 100", "unit": "µM"},
      {"measurement": "IC50", "setting": "[10]; [26]", "result": 1.89, "unit": "µM"},
      {"measurement": "CC50", "setting": "[10]; read-out: 50% Loss (50% kill)", "result": 6.16, "unit": "µM"},
      {"measurement": "IC100", "setting": "[10]; [27]", "result": 3.41, "unit": "µM"},
      {"measurement": "IC50", "setting": "[11]; [26]", "result": 1.93, "unit": "µM"},
      {"measurement": "CC50", "setting": "[11]; read-out: 50% Loss (50% kill)", "result": "> 100", "unit": "µM"},
      {"measurement": "IC100", "setting": "[11]; [27]", "result": 4.48, "unit": "µM"},
      {"measurement": "IC50", "setting": "[12]; [26]", "result": 0.564, "unit": "µM"},
      {"measurement": "CC50", "setting": "[12]; read-out: 50% Loss (50% kill)", "result": 8.88, "unit": "µM"},
      {"measurement": "IC100", "setting": "[12]; [27]", "result": 2.48, "unit": "µM"},
      {"measurement": "IC50", "setting": "[13]; [26]", "result": 1.73, "unit": "µM"},
      {"measurement": "CC50", "setting": "[13]; read-out: 50% Loss (50% kill)", "result": 9.34, "unit": "µM"},
      {"measurement": "IC100", "setting": "[13]; [27]", "result": 4.02, "unit": "µM"},
      {"measurement": "IC50", "setting": "[14]; [26]", "result": 3.06, "unit": "µM"},
      {"measurement": "CC50", "setting": "[14]; read-out: 50% Loss (50% kill)", "result": 68.3, "unit": "µM"},
      {"measurement": "IC100", "setting": "[14]; [27]", "result": 9.91, "unit": "µM"},
      {"measurement": "IC50", "setting": "[15]; [26]", "result": 1.76, "unit": "µM"},
      {"measurement": "CC50", "setting": "[15]; read-out: 50% Loss (50% kill)", "result": 6.71, "unit": "µM"},
      {"measurement": "IC100", "setting": "[15]; [27]", "result": 3.44, "unit": "µM"},
      {"measurement": "IC50", "setting": "[16]; [26]", "result": 6.85, "unit": "µM"},
      {"measurement": "CC50", "setting": "[16]; read-out: 50% Loss (50% kill)", "result": "> 100", "unit": "µM"},
      {"measurement": "IC100", "setting": "[16]; [27]", "result": "> 100", "unit": "µM"},
      {"measurement": "IC50", "setting": "[17]; [26]", "result": 1.65, "unit": "µM"},
      {"measurement": "CC50", "setting": "[17]; read-out: 50% Loss (50% kill)", "result": 6.03, "unit": "µM"},
      {"measurement": "IC100", "setting": "[17]; [27]", "result": 3.16, "unit": "µM"},
      {"measurement": "IC50", "setting": "[18]; [26]", "result": 1.79, "unit": "µM"},
      {"measurement": "IC100", "setting": "[18]; [27]", "result": 3.74, "unit": "µM"},
      {"measurement": "IC50", "setting": "[19]; [26]", "result": 1.35, "unit": "µM"},
      {"measurement": "CC50", "setting": "[19]; read-out: 50% Loss (50% kill)", "result": 6.5, "unit": "µM"},
      {"measurement": "IC100", "setting": "[19]; [27]", "result": 2.97, "unit": "µM"},
      {"measurement": "IC50", "setting": "[20]; [26]", "result": 1.77, "unit": "µM"},
      {"measurement": "CC50", "setting": "[20]; read-out: 50% Loss (50% kill)", "result": 16.6, "unit": "µM"},
      {"measurement": "IC100", "setting": "[20]; [27]", "result": 4.81, "unit": "µM"},
      {"measurement": "IC50", "setting": "[21]; [26]", "result": 3.35, "unit": "µM"},
      {"measurement": "CC50", "setting": "[21]; read-out: 50% Loss (50% kill)", "result": "> 100", "unit": "µM"},
      {"measurement": "IC100", "setting": "[21]; [27]", "result": "> 100", "unit": "µM"},
      {"measurement": "IC50", "setting": "[22]; [26]", "result": 2.3, "unit": "µM"},
      {"measurement": "CC50", "setting": "[22]; read-out: 50% Loss (50% kill)", "result": "> 100", "unit": "µM"},
      {"measurement": "IC100", "setting": "[22]; [27]", "result": 6.4, "unit": "µM"},
      {"measurement": "IC50", "setting": "[23]; [26]", "result": 3.18, "unit": "µM"},
      {"measurement": "CC50", "setting": "[23]; read-out: 50% Loss (50% kill)", "result": "> 100", "unit": "µM"},
      {"measurement": "IC100", "setting": "[23]; [27]", "result": 14.1, "unit": "µM"},
      {"measurement": "IC50", "setting": "[24]; [26]", "result": 0.78, "unit": "µM"},
      {"measurement": "CC50", "setting": "[24]; read-out: 50% Loss (50% kill)", "result": 5.58, "unit": "µM"},
      {"measurement": "IC100", "setting": "[24]; [27]", "result": 2.03, "unit": "µM"},
      {"measurement": "IC50", "setting": "[25]; [26]", "result": 1.69, "unit": "µM"},
      {"measurement": "CC50", "setting": "[25]; read-out: 50% Loss (50% kill)", "result": 6.08, "unit": "µM"},
      {"measurement": "IC100", "setting": "[25]; [27]", "result": 3.21, "unit": "µM"}
    ]}
  ]
}
